Data: paper PMC11177969, “Comprehensive Analyses of the Effects of the Small-Molecule Inhibitor of the UHM Domain in the Splicing Factor U2AF1 in Leukemia Cells” (Research Square, 2024)

Assays:
U2AF1-UHM = target: T1, U2AF1-UHM (Homo sapiens, UniProt Q01081); experiment: HTRF assay, inhibition of binding between U2AF1-UHM and U2AF2-ULM; details: Fig. 2C; SD of 2 independent experiments in parentheses; read-out: IC50 U2AF1
T1 construct: we screened the CCG fragment library from University of Michigan against the U2AF1-UHM domain using the Thermal Shift Assay (TSA)
T1 sequence (Q01081 65-147 limits assumed): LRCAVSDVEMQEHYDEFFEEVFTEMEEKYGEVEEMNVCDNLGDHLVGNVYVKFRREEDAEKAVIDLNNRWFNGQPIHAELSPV
Excerpt: TSA data provided no information of the binding site in U2AF1-UHM. To identify the binding sites of both hits to U2AF1-UHM, we synthesized CCG211578 (named Hit1/SF1–8) and CCG210084 (named Hit2/9 in Fig.2C) and asked if they inhibited the binding between U2AF1-UHM and U2AF2-ULM using our previously developed HTRF assay.[42] […] The IC50 values of SF1–8 and Hit2 correlated with the ΔTm values observed in TSA. We have reported that the conserved Trp binding site in U2AF1-UHM dominated the binding affinity between U2AF2-ULM and U2AF1-UH.[42]

SPF45-UHM = target: T2, SPF45-UHM (Homo sapiens, UniProt Q96I25); experiment: HTRF assay; assay type: binding; details: Fig. 2C; SD of 2 independent experiments in parentheses
T2 sequence (Q96I25 306-385 limits assumed): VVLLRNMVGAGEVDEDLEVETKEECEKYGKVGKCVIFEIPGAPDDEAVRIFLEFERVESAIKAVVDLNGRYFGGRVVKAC
Excerpt: (§1) To determine the selectivity of SF1–8 against other homologous UHM domains, we measured the IC50 values of SF1–8 to RBM39-UHM, SPF45-UHM and PUF60-UHM using the HTRF assay.[42] […] In the chemical synthesis (Scheme S1), methylation on the pyrazole group in SF1–8 can occur at the N8 or N9 position (Fig.2C). Although the NMR spectra can be used to infer the methyl group position on the pyrazole, we determined the crystal structure of a SF1–8 precursor to clearly confirm the methyl group is at N9 in SF1–8 (Fig.2C). To further probe the interaction of SF1–8 with U2AF1-UHM, we synthesized SF1–8 analogs and developed the structure activity relationship (SAR) (Fig.2C). […] A longer alkyl group was tolerated at the N8 position but not at the N9 position. […] The crystal structure of a 7c precursor experimentally determined from SCXRD again confirmed the location of the propyl group (Fig. 2C).

PUF60-UHM = target: T3, PUF60-UHM (Homo sapiens, UniProt Q9UHX1); experiment: HTRF assay; assay type: binding; details: Fig. 2C
T3 sequence (Q9UHX1 462-549 limits assumed): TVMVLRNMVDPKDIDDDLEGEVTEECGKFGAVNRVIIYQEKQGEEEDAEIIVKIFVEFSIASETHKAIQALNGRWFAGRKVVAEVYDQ
Excerpt: as §1

RBM39-UHM = target: T4, RBM39-UHM (Homo sapiens, UniProt Q14498); experiment: HTRF assay; assay type: binding; details: Fig. 2C; SD of 2 independent experiments in parentheses
T4 sequence (Q14498 445-508 limits assumed): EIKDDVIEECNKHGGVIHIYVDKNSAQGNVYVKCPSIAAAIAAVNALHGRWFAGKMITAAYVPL
Excerpt: as §1

K562-U2AF1^S34F = tested on: K562-U2AF1^S34F; set-up: method as in PMID 33689684; details: cited from earlier work

| IC50 (U2AF1-UHM) [µM] | IC50 (SPF45-UHM) [µM] | IC50 (PUF60-UHM) [µM] | IC50 (RBM39-UHM) [µM] | SMILES | fold lower IC50 value in K562-U2AF^S34F than in K562-U2AF1^wt (K562-U2AF1^S34F) | selectivity between K562-U2AF1^S34F and K562-U2AF1^wt (K562-U2AF1^S34F) [fold] |
| --- | --- | --- | --- | --- | --- | --- |
| 383 | 519 | > 1000 | > 1000 | CCC1(c2cc(O)n(C)n2)CCNCC1 [7e] |  |  |
| 467 | 958 | 910 | > 1000 | CCn1nc(C2(C)CCNCC2)cc1O [7b] |  |  |
|  |  |  |  | CC1(C)C2CCC(CN=C(N)CSS(=O)(=O)O)C1C2 (stereo not drawn) [NSC194308] | 2–3 fold | 2 |
|  | 473 | 550 | > 1000 | Cn1nc(O)cc1C1(C)CCNCC1 [8a] |  |  |
| 34.1 | 362 | 621 | 386 | CCCn1nc(O)cc1C1(C)CCNCC1 [8c] |  |  |
| 71.6 | 354 | 459 | 395 | CC(C)n1nc(O)cc1C1(C)CCNCC1 [8d] |  |  |
